Earlier results, collected in patent US6399115B2, “Method and composition for the treatment of benign prostate hypertrophy (BPH) and prevention of prostate cancer” (priority 1999, dated 2002).

Legend:
plasma testosterone = details: in vivo
5 alpha-reductase = details: human prostatic tissue
[1] = among the major carotenoids

Structure (SMILES): [Cu] [Copper]
- levels of plasma testosterone (plasma testosterone): reduce

Structure (SMILES): [Zn] [Zinc]
- relationship with 5 alpha-reductase activity (5 alpha-reductase): inverse relationship

Structure (SMILES): CC(C)=CCC/C(C)=C/C=C/C(C)=C/C=C/C(C)=C/C=C/C=C(C)/C=C/C=C(C)/C=C/C=C(\C)CCC=C(C)C [lycopene]
- quenching free oxygen radicals [1]: most effective and significant
